# According to patent US6846824B2, “Bicyclic compounds and their use in medicine; process for their preparation and pharmaceutical compositions containing them” (Dr. Reddy's Laboratories Ltd., priority 1997, dated 2005):
# How the values were obtained:
# Type in all cases: in vivo
# [1] = tested on: Swiss albino mice and Guinea pigs; assay: Plasma triglyceride and total cholesterol lowering activity in Swiss albino mice and Guinea pigs; settings: species (Swiss albino mice or Guinea pigs) not given
# Protocol: Male Swiss albino mice (SAM) and male Guinea pigs were obtained from NIN and housed in DRF animal house. All these animals were maintained under 12 hour light and dark cycle at 25±1° C. Animals were given standard laboratory chow (NIN, Hyderabad, India) and water, ad libitum. SAM of 20-25 g body weight range and Guinea pigs of 500-700 g body weight range were used (Oliver, P., Plancke, M. O., Marzin, D., Clavey, V., Sauzieres, J and Fruchart, J. C. Effects of fenofibrate, gemfibrozil and nicotinic acid on plasma lipoprotein levels in normal and hyperlipidemic mice. Atherosclerosis. 1988. 70: 107-114).
# The test compounds were administered orally to Swiss albino mice at 0.3 to 30 mg/kg/day dose for 6 days. Control mice were treated with vehicle (0.25% Carboxymethylcellulose; dose 10 ml/kg). The test compounds were administered orally to Guinea pigs at 0.3 to 30 mg/kg/day dose for 6 days. Control animals were treated with vehicle (0.25% Carboxymethylcellulose; dose 5 ml/kg).
# The blood samples were collected in fed state 1 hour after drug administration on 0 and 6 day of treatment. The blood was collected from the retro-orbital sinus through heparinised capillary in EDTA containing tubes. After centrifugation, plasma sample was separated for triglyceride and total cholesterol (Wieland, 0. Methods of Enzymatic analysis. Bergermeyer, H. O., Ed., 1963. 211-214; Trinder, P. Ann. Clin. Biochem. 1969. 6: 24-27). Measurement of plasma triglyceride, total cholesterol and HDL were done using commercial kits (Dr. Reddy's Diagnostic Division, Hyderabad, India).
# (§1) Formulae for Calculation: • 1. Percent reduction in Blood sugar/triglycerides/total cholesterol/body weight were calculated according to the formula: • Percent reduction [formula] OC=Zero day control group value OT=Zero day treated group value TC=Test day control group value TT=Test day treated group value
# C57BL/KsJ-db/db mice = assay: Blood sugar and triglycerides lowering activity in db/db mice (genetic model)
# From the text: Mutation in colonies of laboratory animals and different sensitivities to dietary regimens have made the development of animal models with non-insulin dependent diabetes and hyperlipidemia associated with obesity and insulin resistance possible. Genetic models such as db/db and ob/ob (Diabetes, (1982) 31(1): 1-6) mice and zucker fa/fa rats have been developed by the various laboratories for understanding the pathophysiology of disease and testing the efficacy of new antidiabetic compounds (Diabetes, (1983) 32: 830-838; Annu. Rep. Sankyo Res. Lab. (1994). 46 : 1-57). The homozygous animals, C57 BL/KsJ-db/db mice developed by Jackson Laboratory, US, are obese, hyperglycemic, hyperinsulinemic and insulin resistant (J. Clin. Invest., (1990) 85: 962-967), whereas heterozygous are lean and normoglycemic. In db/db model, mouse progressively develops insulinopenia with age, a feature commonly observed in late stages of human type II diabetes when blood sugar levels are insufficiently controlled. The state of pancreas and its course vary according to the models. Since this model resembles that of type II diabetes mellitus, the compounds of the present invention were tested for blood sugar and triglycerides lowering activities.
# Male C57BL/KsJ-db/db mice of 8 to 14 weeks age, having body weight range of 35 to 60 grams, bred at Dr. Reddy's Research Foundation (DRF)animal house, were used in the experiment. The mice were provided with standard feed (National Institute of Nutrition (NIN), Hyderabad, India) and acidified water, ad libitum. The animals having more than 350 mg/dl blood sugar were used for testing. The number of animals in each group was 4.
# Test compounds were suspended on 0.25% carboxymethyl cellulose and administered to test group at a dose of 0.1 mg to 30 mg/kg through oral gavage daily for 6 days. The control group received vehicle (dose 10 ml/kg). On 6th day the blood samples were collected one hour after administration of test compounds/vehicle for assessing the biological activity.
# The random blood sugar and triglyceride levels were measured by collecting blood (100 μl) through orbital sinus, using heparinised capillary in tubes containing EDTA which was centrifuged to obtain plasma. The plasma glucose and triglyceride levels were measured spectrometrically, by glucose oxidase and glycerol-3-PO4 oxidase/peroxidase enzyme (Dr. Reddy's Lab. Diagnostic Division Kits, Hyderabad, India) methods respectively.
# The blood sugar and triglycerides lowering activities of the test compound was calculated according to the formula.
# as §1
# [2] = tested on: hypercholesterolemic Sprague Dawley rats; assay: Plasma triglyceride and cholesterol lowering activity in hypercholesterolemic rat models; settings: 1 mg/kg orally for 3 days; for HDL (%) ↑: increase; for Total Cholesterol (%) ↓ / Triglyceride (%) ↓ / LDL (%) ↓ / VLDL (%) ↓: reduction; for LDL (%) ↓: LDL calculated from total cholesterol; for LDL (%) ↓ / VLDL (%) ↓: HDL and triglyceride; for VLDL (%) ↓: VLDL calculated from total cholesterol
# Protocol: Male Sprague Dawley rats (NIN stock) were bred in DRF animal house. Animals were maintained under 12 hour light and dark cycle at 25±1° C. Rats of 180 -200 gram body weight range were used for the experiment. Animals were made hypercholesterolemic by feeding 2% cholesterol and 1% sodium cholate mixed with standard laboratory chow [National Institute of Nutrition (NIN), Hyderabad, India] for 6 days. Throughout the experimental period the animals were maintained on the same diet (Petit, D., Bonnefis, M. T., Rey, C and Infante, R. Effects of ciprofibrate on liver lipids and lipoprotein synthesis in normo- and hyperlipidemic rats. Atherosclerosis. 1988. 74:215-225).
# The test compounds were administered orally at a dose 0.1 to 30 mg/kg/day for 3 days. Control group was treated with vehicle alone (0.25% Carboxymethylcellulose; dose 10 ml/kg).
# The blood samples were collected in fed state 1 hour after drug administration on 0 and 3 day of compound treatment. The blood was collected from the retro-orbital sinus through heparinised capillary in EDTA containing tubes. After centrifugation, plasma sample was separated for total cholesterol, HDL and triglyceride estimations. Measurement of plasma triglyceride, total cholesterol and HDL were done using commercial kits (Dr. Reddy's Laboratory, Diagnostic Division, India). LDL and VLDL cholesterol were calculated from the data obtained for total cholesterol, HDL and triglyceride. The reduction of various parameters examined are calculated according to the formula.
# as §1
# 2. LDL and VLDL cholesterol levels were calculated according to the formula: [formula] [formula]
# [3] = tested on: cholesterol fed Syrian Hamsters; assay: Body weight reducing effect in cholesterol fed hamsters; settings: 10 mg/kg/day orally for 15 days
# Protocol: Male Syrian Hamsters were procured from NIN, Hyderabad, India. Animals were housed at DRF animal house under 12 hour light and dark cycle at 25±1° C. with free access to food and water. Animals were maintained with 1% cholesterol containing standard laboratory chow (NIN) from the day of treatment.
# The test compounds were administered orally at 1 to 30 mg/kg/day dose for 15 days. Control group animals were treated with vehicle (Mill Q water, dose 10 ml/kg/day). Body weights were measured on every 3rd day.
# as §1
# [4] = 3 mg/kg oral gavage daily for 6 days
# [5] = 10 mg/kg oral gavage daily for 6 days
smiles,measurement,setting,value
"CCOC(Cc1ccc(OCCN2CCOc3ccccc32)cc1)C(N)=O (racemic) [Example 33, 3-[4-[2-(2,3-Dihydro-1,4-benzoxazin-4-yl)ethoxy]phenyl]-2-ethoxypropanamide]",Triglyceride Lowering (%),[1]; 3 mg/kg orally for 6 days,55%
"CCOC(Cc1ccc(OCCN2C(=O)COc3ccccc32)cc1)C(=O)O (racemic) [Example 41, 3-[4-[2-(3-Oxo-2H-1,4-benzoxazin-4-yl)ethoxy]phenyl]-2-ethoxypropanoic acid]",Reduction in Blood Glucose Level (%),C57BL/KsJ-db/db mice; [4],53%
same,Triglyceride Lowering (%),C57BL/KsJ-db/db mice; [4],27%
same,Triglyceride Lowering (%),[1]; 10 mg/kg orally for 6 days,54%
"CCOC(Cc1ccc2cc(OCCN3CCSc4ccccc43)ccc2c1)C(=O)O (racemic) [Example 43, 3-[6-[2-(2,3-Dihydro-1,4-benzothiazin-4-yl)ethoxy]naphthyl]-2-ethoxypropanoic acid]",Triglyceride Lowering (%),[1]; 3 mg/kg orally for 6 days,49%
"CCOC(Cc1ccc(OCCN2CCOc3ccccc32)cc1)C(=O)[O-].[Na+] (stereo not shown) [Example 27, 3-[4-[2-(2,3-Dihydro-1,4-benzoxazin-4-yl)ethoxy]phenyl]-2-ethoxypropanoic acid, sodium salt]",HDL (%) ↑,[2],37%
same,Total Cholesterol (%) ↓,[2],57%
same,Triglyceride (%) ↓,[2],43%
same,LDL (%) ↓,[2],58%
same,VLDL (%) ↓,[2],79%
same,Body weight Reduction (%),[3],12%
"CCOC(Cc1ccc(OCCN2CCSc3ccccc32)cc1)C(=O)[O-].[Na+] (stereo not shown) [Example 30, 3-[4-[2-(2,3-Dihydro-1,4-benzothiazin-4-yl)ethoxy]phenyl]-2-ethoxypropanoic acid, sodium salt]",Body weight Reduction (%),[3],18%
CCOC(Cc1ccc2cc(OCCN3CCSc4ccccc43)ccc2c1)C(=O)[O-].[Na+] (stereo not shown) [Example 44],HDL (%) ↑,[2],46%
same,Total Cholesterol (%) ↓,[2],42%
same,Triglyceride (%) ↓,[2],50%
same,LDL (%) ↓,[2],44%
same,VLDL (%) ↓,[2],53%
same,Reduction in Blood Glucose Level (%),C57BL/KsJ-db/db mice; [5],47%
same,Triglyceride Lowering (%),C57BL/KsJ-db/db mice; [5],74%
"CCCCOC(Cc1ccc(OCCN2CCOc3ccccc32)cc1)C(=O)[O-].[Na+] (stereo not shown) [Example 50, 3-[4-[2-(2,3-Dihydro-1,4-benzoxazin-4-yl)ethoxy]phenyl]-2-butoxypropanoic acid, sodium salt]",Reduction in Blood Glucose Level (%),C57BL/KsJ-db/db mice; [4],45%
same,Triglyceride Lowering (%),C57BL/KsJ-db/db mice; [4],23%
"CCOC(Cc1ccc(OCC2CN(Cc3ccccc3)c3ccccc3O2)cc1)C(=O)[O-].[Na+] (stereo not shown) [Example 63, 3-[4-(4-Benzyl-3,4-dihydro-2H-1,4-benzoxazin-2-yl)methoxyphenyl]-2-ethoxypropanoic acid, sodium salt]",Triglyceride Lowering (%),[1]; 3 mg/kg orally for 6 days,57%
